Assay: Zeta potential of zinc oxide in the presence of amino acids
Type: physicochemical
Conditions: aqueous zinc oxide suspension 12 mM, alone (pH 8) or with the named amino acid (1.7 mmol) added
Method: The effect on zinc oxide particle charge upon exposure to amino acids was screened using zeta potential. Specific amino acids were selected based on side chain functionality: L-serine (polar, neutral), L-arginine (polar, cationic), and L-glutamic acid (polar, anionic). For zeta potential measurements, select amino acids (1.7 mmol) were added to aqueous suspensions of zinc oxide (12 mM). This concentration of zinc oxide was studied so as to minimize aggregation during zeta potential measurements. Each amino acid-zinc oxide solution was vortexed, sonicated, and then loaded into a Zetasizer DTS 1061 capillary cuvette. The cuvette was placed in the Zetasizer instrument and 12 zeta runs were performed. An average zeta potential value was calculated from the results.

Row | Structure (SMILES) | zeta potential (charge of zinc oxide)
1 | N=C(N)NCCC[C@H](N)C(=O)O [L-arginine] | +36 mV
2 | N[C@@H](CCC(=O)O)C(=O)O [L-glutamic acid] | −28 mV
3 | N[C@@H](CO)C(=O)O [L-serine] | did not alter the charge
4 | [O]=[Zn] [Zinc oxide, zinc oxide] | +16 mV

From patent US20200206108A1, “Oral Care Compositions and Methods of Use” (Colgate-Palmolive Company, priority 2018, published 2020)
